Experimental findings from US20240376084A1, “INHIBITORS OF ALPHA-HEMOLYSIN OF STAPHYLOCOCCUS AUREUS” (Helmholtz-Zentrum Fur Infektionsforschung GmbH, priority 2021, published 2024) are described below.

Test [1] concerns the target S. aureus Alpha hemolysin (Staphylococcus aureus, UniProt P09616). In words: cell-based.
Test [2] addresses hemolysin alpha from Staphylococcus aureus (Staphylococcus aureus, UniProt P09616). The test can be described thus: cell-based.

S. aureus Alpha hemolysin, sequence (P09616 27-319 limits assumed): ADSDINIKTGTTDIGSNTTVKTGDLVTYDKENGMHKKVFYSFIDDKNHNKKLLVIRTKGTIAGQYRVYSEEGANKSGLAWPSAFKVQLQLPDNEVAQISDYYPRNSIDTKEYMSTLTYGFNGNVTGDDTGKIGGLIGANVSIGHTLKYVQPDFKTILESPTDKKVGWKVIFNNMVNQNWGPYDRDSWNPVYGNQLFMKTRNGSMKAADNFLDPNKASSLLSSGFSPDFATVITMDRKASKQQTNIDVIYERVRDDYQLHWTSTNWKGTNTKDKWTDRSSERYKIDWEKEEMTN
hemolysin alpha from Staphylococcus aureus, sequence (P09616 27-319 limits assumed): as above

Regarding `CNc1cc2[nH]c(=O)c(=O)[nH]c2cc1S(=O)(=O)Nc1ccc(OC(F)(F)F)cc1` [Compound 381, 7-(methylamino)-2,3-dioxo-N-[4-(trifluoromethoxy)phenyl]-1,4-dihydroquinoxaline-6-sulfonamide], the EC50 in test [1] (A549-LDH Assay activity) and in test [2] was 100 to 1000 nM throughout.

With `O=c1[nH]c2cc(OC3CC3)c(S(=O)(=O)Nc3ccc(OC(F)(F)F)cc3)cc2[nH]c1=O` [Compound 382, 7-(cyclopropoxy)-2,3-dioxo-N-[4-(trifluoromethoxy)phenyl]-1,4-dihydroquinoxaline-6-sulfonamide], the EC50 fell in the range of 100 to 1000 nM in test [1] (A549-LDH Assay activity) and 1000 to 3500 nM in test [2].

`COc1cc2[nH]c(=O)c(=O)[nH]c2cc1S(=O)(=O)Nc1ccc(Br)cc1` [Compound 383, N-(4-bromophenyl)-7-methoxy-2,3-dioxo-1,4-dihydroquinoxaline-6-sulfonamide]: the EC50 fell in the range of 100 to 1000 nM in test [1] (A549-LDH Assay activity) and 1000 to 3500 nM in test [2].

Turning to `Cc1cc2[nH]c(=O)c(=O)[nH]c2cc1S(=O)(=O)Nc1ccc(C2COC2)cc1` [Compound 384, 7-methyl-N-[4-(oxetan-3-yl)phenyl]-2,3-dioxo-1,4-dihydroquinoxaline-6-sulfonamide], the concentration for a half-maximal effect (EC50) in test [1] (A549-LDH Assay activity) is 100 to 1000 nM; in test [2], 1000 to 3500 nM.

In the case of `Cc1cc2[nH]c(=O)c(=O)[nH]c2cc1S(=O)(=O)Nc1cnc(-n2nccn2)c(Cl)c1` [Compound 385, N-[5-chloro-6-(triazol-2-yl)-3-pyridyl]-7-methyl-2,3-dioxo-1,4-dihydroquinoxaline-6-sulfonamide], the EC50 lay within 100 to 1000 nM in test [1] (A549-LDH Assay activity) and 1000 to 3500 nM in test [2].

As to `Cc1cc2[nH]c(=O)c(=O)[nH]c2cc1S(=O)(=O)Nc1ccc(-c2cccc(O)c2)c(Cl)c1` [Compound 386, N-[3-chloro-4-(3-hydroxyphenyl)phenyl]-7-methyl-2,3-dioxo-1,4-dihydroquinoxaline-6-sulfonamide], the EC50 in test [1] (A549-LDH Assay activity) and in test [2] was under 30 nM each time.

Regarding `[2H]C([2H])([2H])c1cc2[nH]c(=O)c(=O)[nH]c2cc1S(=O)(=O)Nc1ccc(-c2ccc(F)cc2)c(Cl)c1` [Compound 387, N-[3-chloro-4-(4-fluorophenyl)phenyl]-2,3-dioxo-7-(trideuteriomethyl)-1,4-dihydroquinoxaline-6-sulfonamide], the EC50 in test [1] (A549-LDH Assay activity) was 30 to 100 nM; in test [2], under 30 nM.

`Cc1cc2[nH]c(=O)c(=O)[nH]c2cc1S(=O)(=O)Nc1ccc2c(c1)B(O)OC2` [Compound 388, N-(1-hydroxy-3H-2,1-benzoxaborol-6-yl)-7-methyl-2,3-dioxo-1,4-dihydroquinoxaline-6-sulfonamide]: the concentration giving a half-maximal response (EC50) in test [1] (A549-LDH Assay activity) fell in the range of 1000 to 6000 nM; in test [2] it was 100 to 1000 nM.

As for `Cc1cc2[nH]c(=O)c(=O)[nH]c2cc1S(=O)(=O)Nc1ccc(-c2ccc(F)c(C(N)=O)c2)c(Cl)c1` [Compound 389, 5-[2-chloro-4-[(7-methyl-2,3-dioxo-1,4-dihydroquinoxalin-6-yl)sulfonylamino]phenyl]-2-fluoro-benzamide], the values for the EC50 in test [1] (A549-LDH Assay activity) and in test [2] were 30 to 100 nM and under 30 nM, respectively.

As to `Cc1cc2[nH]c(=O)c(=O)[nH]c2cc1S(=O)(=O)Nc1ccc(-c2cc(F)cc(C(N)=O)c2)c(Cl)c1` [Compound 390, 3-[2-chloro-4-[(7-methyl-2,3-dioxo-1,4-dihydroquinoxalin-6-yl)sulfonylamino]phenyl]-5-fluoro-benzamide], the concentration giving a half-maximal response (EC50) in test [1] (A549-LDH Assay activity) and in test [2] was under 30 nM throughout.

As for `COc1cc2[nH]c(=O)c(=O)[nH]c2cc1S(=O)(=O)Nc1ccc(OC(F)F)cc1` [Compound 391, N-[4-(difluoromethoxy)phenyl]-7-methoxy-2,3-dioxo-1,4-dihydroquinoxaline-6-sulfonamide], the half-maximal effective concentration (EC50) in test [1] (A549-LDH Assay activity) fell in the range of 100 to 1000 nM; in test [2], 1000 to 3500 nM.

Consider `[2H]C([2H])([2H])c1cc2[nH]c(=O)c(=O)[nH]c2cc1S(=O)(=O)Nc1cnc(-c2ccc(F)cc2)c(Cl)c1` [Compound 392, N-[5-chloro-6-(4-fluorophenyl)-3-pyridyl]-2,3-dioxo-7-(trideuteriomethyl)-1,4-dihydroquinoxaline-6-sulfonamide], for which the half-maximal effective concentration (EC50) lay in the range of 100 to 1000 nM in test [1] (A549-LDH Assay activity) and 30 to 100 nM in test [2].

As for `Cc1cc2[nH]c(=O)c(=O)[nH]c2cc1S(=O)(=O)Nc1ccc(-c2ccc(F)c(C#N)c2)c(Cl)c1` [Compound 393, N-[3-chloro-4-(3-cyano-4-fluoro-phenyl)phenyl]-7-methyl-2,3-dioxo-1,4-dihydroquinoxaline-6-sulfonamide], the concentration giving a half-maximal response (EC50) in test [1] (A549-LDH Assay activity) fell in the range of 100 to 1000 nM; in test [2], 30 to 100 nM.

As for `Cc1cc2[nH]c(=O)c(=O)[nH]c2cc1S(=O)(=O)Nc1ccc(OC(F)F)cc1` [Compound 394, N-[4-(difluoromethoxy)phenyl]-7-methyl-2,3-dioxo-1,4-dihydroquinoxaline-6-sulfonamide], the 50% effective concentration (EC50) in test [1] (A549-LDH Assay activity) was in the range of 30 to 100 nM; in test [2], 100 to 1000 nM.

As for `Cc1cc2[nH]c(=O)c(=O)[nH]c2cc1S(=O)(=O)Nc1ccc(SC(F)(F)F)cc1` [Compound 396, 7-methyl-2,3-dioxo-N-[4-(trifluoromethylsulfanyl)phenyl]-1,4-dihydroquinoxaline-6-sulfonamide], the figures for the half-maximal effective concentration (EC50) in test [1] (A549-LDH Assay activity) and in test [2] were 30 to 100 nM and 100 to 1000 nM, respectively.

Regarding `Cc1cc2[nH]c(=O)c(=O)[nH]c2cc1S(=O)(=O)Nc1ccc(-c2ccc(S(C)(=O)=O)cc2)c(Cl)c1` [Compound 398, N-[3-chloro-4-(4-methylsulfonylphenyl)phenyl]-7-methyl-2,3-dioxo-1,4-dihydroquinoxaline-6-sulfonamide], the 50% effective concentration (EC50) in test [1] (A549-LDH Assay activity) fell in the range of 1000 to 6000 nM; in test [2], 1000 to 3500 nM.

With `COc1cc2[nH]c(=O)c(=O)[nH]c2cc1S(=O)(=O)Nc1ccc(SC(F)(F)F)cc1` [Compound 399, 7-methoxy-2,3-dioxo-N-[4-(trifluoromethylsulfanyl)phenyl]-1,4-dihydroquinoxaline-6-sulfonamide], the values for the 50% effective concentration (EC50) in test [1] (A549-LDH Assay activity) and in test [2] were 100 to 1000 nM and 1000 to 3500 nM, respectively.

In the case of `COc1cc2[nH]c(=O)c(=O)[nH]c2cc1S(=O)(=O)Nc1ccc(C(F)(F)F)cc1` [Compound 400, 7-methoxy-2,3-dioxo-N-[4-(trifluoromethyl)phenyl]-1,4-dihydroquinoxaline-6-sulfonamide], the values for the EC50 in test [1] (A549-LDH Assay activity) and in test [2] were 100 to 1000 nM and 1000 to 3500 nM, respectively.

In the case of `Cc1cc2[nH]c(=O)c(=O)[nH]c2cc1S(=O)(=O)Nc1ccc(OC(F)(F)F)cc1` [drawing 469 (R^2 = CH3)], the EC50 stood at 14 nM in test [1] (LDH Assay EC50) and 37 nM in test [2].

For the compound `O=c1[nH]c2ccc(S(=O)(=O)Nc3ccc(OC(F)(F)F)cc3)cc2[nH]c1=O` [drawing 469 (R^2 = H), reference compound], the EC50 stood at 241 nM in test [1] (LDH Assay EC50) and 290 nM in test [2].

Regarding `Cc1cc2[nH]c(=O)c(=O)[nH]c2cc1S(=O)(=O)Nc1ccc(C2CC2)cc1` [drawing 470 (R^2 = CH3)], the EC50 came to 18 nM in test [1] (LDH Assay EC50) and 63 nM in test [2].

Regarding `O=c1[nH]c2ccc(S(=O)(=O)Nc3ccc(C4CC4)cc3)cc2[nH]c1=O` [drawing 470 (R^2 = H), reference compound], the concentration for a half-maximal effect (EC50) in test [1] (LDH Assay EC50) amounted to 80 nM; in test [2], 423 nM.

Consider `Cc1cc(NS(=O)(=O)c2cc3[nH]c(=O)c(=O)[nH]c3cc2C)ccc1Br` [drawing 471 (R^2 = CH3)], for which the half-maximal effective concentration (EC50) in test [1] (LDH Assay EC50) amounted to 91 nM; in test [2], 267 nM.

Take `Cc1cc(NS(=O)(=O)c2ccc3[nH]c(=O)c(=O)[nH]c3c2)ccc1Br` [drawing 471 (R^2 = H), reference compound]: the values for the EC50 in test [1] (LDH Assay EC50) and in test [2] were 346 nM and 1690 nM, respectively.

What is called EC50 is the midpoint of the concentration-response curve.
